For this assay, the system named is mouse MC3T3 E1 osteoblast cultures. As to the kind of experiment: Cell adhesion test on RGD-peptide-coated titanium surfaces. It counts as cell-based. As to conditions: 50,000 cells/cm^2 seeded, one hour in serum-free medium at 37° C.; FIG. 2; compared with JAU311003, all concentrations measured. Here is the method:
Ti or TiAl6V4 moldings having a diameter of 10 mm and a height of 1-2 mm are cleaned.
The moldings are transferred into 48-well plates (Costar, “non-tissue culture treated” Art. No. 3574). For bonding of the bioactive, cell adhesion-promoting molecules B (where B can be a cyclopeptide, peptide mimetic or linear peptide) to the prepared moldings, stock solutions containing B molecules (“B solutions”) are prepared in a final concentration of 1 mM in an aqueous buffer. Concentration series with the “B solution” final concentrations of 1 nM, 10 nM, 100 nM, 1 μM, 10 μM and 100 μM in each case are subsequently prepared by dilution with buffer. The moldings are covered with 250 μl of the respective B solutions in each case and subsequently incubated at room temperature for 18-24 hours. For removal of unbound B molecules, the samples are washed three times with buffer and stored in buffer overnight. […]
The adhesion of mouse MC3T3 E1 osteoblast cultures to RGD-peptide-coated titanium surfaces in vitro was investigated. 50,000 cells/cm^2 were seeded, and the proportion of adhered cells was determined after incubation for one hour in serum-free medium at 37° C./95% atmospheric humidity. • Cell adhesion rate [%]=adhered cells/seeded cells×100 • Peptide: cell adhesion rate [%] • The results can be found in the figures.

Turning to “cyclo(Arg-Gly-Asp-D-Phe-Lys(^εNH—[CO—(CH2)5—NH]3—(CO—C6H3(CH2PO3H2)2)) [CD 135]”, the Cell adhesion rate entry is reported as “higher cell adhesion rate for all concentrations measured”.

Values taken from US20050261169A1, “Peptide and peptide mimetic derivatives having integrin inhibitor properties III” (priority 2003, published 2005).
